How the values were obtained:
[1] = target: T1, TbGSK3 short (Trypanosoma brucei brucei, UniProt Q388M1); assay: Radiometric 96-well Flashplate potency assay, TbGSK3; assay type: biochemical
T1 sequence (Q388M1 1-352): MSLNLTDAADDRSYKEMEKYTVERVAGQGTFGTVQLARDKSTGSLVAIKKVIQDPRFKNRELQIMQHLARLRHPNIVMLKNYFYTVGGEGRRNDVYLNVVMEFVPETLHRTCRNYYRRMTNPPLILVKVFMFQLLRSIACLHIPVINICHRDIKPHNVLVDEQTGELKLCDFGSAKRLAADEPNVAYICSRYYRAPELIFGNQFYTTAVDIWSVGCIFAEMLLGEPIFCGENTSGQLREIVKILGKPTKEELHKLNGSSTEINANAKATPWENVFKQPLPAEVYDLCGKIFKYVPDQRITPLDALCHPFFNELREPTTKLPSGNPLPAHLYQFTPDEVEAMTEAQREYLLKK
Protocol: For compound potency determinations, a radiometric 96-well Flashplate assay (PerkinElmer) was adopted. Compounds were solubilized in DMSO at a top concentration of 3 mM and serially diluted to achieve 10-point titration of final assay concentrations from 30 μM to 0.3 nM with a final DMSO concentration of 1% (v/v). The reaction mixtures contained 1 μM biotinylated GSP2 substrate, 1 μM ATP, 3.7 KBq/well [γ-33P]-ATP and 2.5 nM TbGSK3 in the TbGSK3 kinase assay buffer. GSK3 inhibitors were screened for selectivity assessment also against HsGSK3β. For HsGSK3 assay, the reaction mixes contained 1 μM biotinylated GSP2 substrate, 2 μM ATP, 7.4 KBq/well [γ-33P]-ATP and 15 nM HsGSK3β in the TbGSK3 kinase assay buffer (25 mM Tris-HCl, pH 7.5, 10 mM MgCl2, 5 mM DTT, 0.02% CHAPS, 2 U/mL heparin). For HsCDK2/cyclin A assay, the reaction mixtures contained 1 mM CDK5 biotinylated peptide substrate (Biotin-C6-PKTPKKAKKL), 1 μM ATP, 7.4 KBq/well [γ-^33P]-ATP and 2 nM HsCDK2/cyclin A in the kinase assay buffer (50 mM Tris-HCl, pH 7.5, 10 mM MgCl2, 2 mM DTT, 100 mM NaCl, 0.2 mM EGTA, 0.02% (v/v) Brij35).
The statistical significance of the compound potency (IC50) was based on the performance of standard molecules which have been tested to a high replication. In the case of TbGSK3 short assay, the standard compound GW8510 was tested 93 times across 9 independent runs. […] The minimum significant ratio (MSR) of 0.4 was evaluated considering the following formula: [drawing 1] where SD is the standard deviation and N the number of replicate values routinely used for the assay (2 in our case).[31] This implies that a difference of >0.4 in pIC50 can be considered statistically significant for this assay.

[2] = test system: IKK; assay: Mammalian kinase profiling (DSTT panel); assay type: biochemical, human; conditions: 10 μM; average percentage of remaining activity
Protocol: (§1) To assess the selectivity of the aminopyrazole inhibitors, remaining activity at 10 μM concentration was measured for compounds 4f, 4m, and 4y against a panel of 80 human PKs and for compound 9g against 124 human PKs. […] Compound 4m inhibited only two PKs, namely GSK3β and CDK2, at more than 80%.
(§2) Selected compounds were screened against a panel of mammalian kinases routinely run by the Division of Signal Transduction Therapy (DSTT) at the University of Dundee in duplicate at 10 μM.[32] Enzymes included in the panel and assay conditions are reported in the literature. All biochemical assays are run below the Km^app for the ATP for each enzyme, allowing comparison of inhibition across the panel.

[3] = test system: panel of 80 human PKs; assay: Mammalian kinase profiling, whole panel (4f, 4m, 4y); assay type: biochemical; conditions: 10 μM
Protocol: as §1, §2

[4] = target: T2, ERK1 (Homo sapiens, UniProt P27361); assay: Mammalian kinase profiling (DSTT panel); assay type: biochemical; conditions: 10 μM; average percentage of remaining activity
T2 construct: purchased Division of Signal Transduction Therapy (DSTT), University of Dundee
Protocol: as §1, §2

[5] = target: T3, BRSK2 (Homo sapiens, UniProt Q8IWQ3); assay: Mammalian kinase profiling (DSTT panel); assay type: biochemical; conditions: 10 μM; average percentage of remaining activity
T3 construct: purchased Division of Signal Transduction Therapy (DSTT), University of Dundee
Protocol: as §1, §2

[6] = target: T4, PKCa (Homo sapiens, UniProt P17252); assay: Mammalian kinase profiling (DSTT panel); assay type: biochemical; conditions: 10 μM; average percentage of remaining activity
T4 construct: purchased Division of Signal Transduction Therapy (DSTT), University of Dundee
Protocol: as §1, §2

[7] = target: T5, EPH A2 (Homo sapiens, UniProt P29317); assay: Mammalian kinase profiling (DSTT panel); assay type: biochemical; conditions: 10 μM; average percentage of remaining activity
T5 construct: purchased Division of Signal Transduction Therapy (DSTT), University of Dundee
Protocol: as §1, §2

[8] = target: T6, BTK (Homo sapiens, UniProt Q06187); assay: Mammalian kinase profiling (DSTT panel); assay type: biochemical; conditions: 10 μM; average percentage of remaining activity
T6 construct: purchased Division of Signal Transduction Therapy (DSTT), University of Dundee
Protocol: as §1, §2

[9] = target: T7, P38a MAPK (Homo sapiens, UniProt Q16539); assay: Mammalian kinase profiling (DSTT panel); assay type: biochemical; conditions: 10 μM; average percentage of remaining activity
T7 construct: purchased Division of Signal Transduction Therapy (DSTT), University of Dundee
Protocol: as §1, §2

[10] = target: T8, PIM2 (Homo sapiens, UniProt Q9P1W9); assay: Mammalian kinase profiling (DSTT panel); assay type: biochemical; conditions: 10 μM; average percentage of remaining activity
T8 construct: purchased Division of Signal Transduction Therapy (DSTT), University of Dundee
Protocol: as §1, §2

[11] = target: T9, PLK1 (Homo sapiens, UniProt P53350); assay: Mammalian kinase profiling (DSTT panel); assay type: biochemical; conditions: 10 μM; average percentage of remaining activity
T9 construct: purchased Division of Signal Transduction Therapy (DSTT), University of Dundee
Protocol: as §1, §2

[12] = target: T10, Lck (Homo sapiens, UniProt P06239); assay: Mammalian kinase profiling (DSTT panel); assay type: biochemical; conditions: 10 μM; average percentage of remaining activity
T10 construct: purchased Division of Signal Transduction Therapy (DSTT), University of Dundee
Protocol: as §1, §2

[13] = target: T11, CHK2 (Homo sapiens, UniProt O96017); assay: Mammalian kinase profiling (DSTT panel); assay type: biochemical; conditions: 10 μM; average percentage of remaining activity
T11 construct: purchased Division of Signal Transduction Therapy (DSTT), University of Dundee
Protocol: as §1, §2

[14] = target: T12, PRAK (Homo sapiens, UniProt Q8IW41); assay: Mammalian kinase profiling (DSTT panel); assay type: biochemical; conditions: 10 μM; average percentage of remaining activity
T12 construct: purchased Division of Signal Transduction Therapy (DSTT), University of Dundee
T12 sequence (Q8IW41 1-473): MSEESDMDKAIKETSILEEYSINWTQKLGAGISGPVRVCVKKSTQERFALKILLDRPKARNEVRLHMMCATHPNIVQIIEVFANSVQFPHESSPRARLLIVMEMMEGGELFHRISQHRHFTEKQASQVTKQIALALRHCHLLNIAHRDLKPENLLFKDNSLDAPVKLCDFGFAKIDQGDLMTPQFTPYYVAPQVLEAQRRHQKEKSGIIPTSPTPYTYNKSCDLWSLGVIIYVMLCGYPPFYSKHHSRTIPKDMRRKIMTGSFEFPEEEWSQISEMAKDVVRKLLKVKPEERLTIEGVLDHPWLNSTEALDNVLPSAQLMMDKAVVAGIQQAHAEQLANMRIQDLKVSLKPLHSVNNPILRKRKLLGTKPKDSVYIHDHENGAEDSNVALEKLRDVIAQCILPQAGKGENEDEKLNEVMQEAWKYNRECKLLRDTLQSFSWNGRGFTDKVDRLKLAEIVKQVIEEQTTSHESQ
Protocol: as §1, §2

[15] = target: T13, IKKe (Homo sapiens, UniProt Q14164); assay: Mammalian kinase profiling (DSTT panel); assay type: biochemical; conditions: 10 μM; average percentage of remaining activity
T13 construct: purchased Division of Signal Transduction Therapy (DSTT), University of Dundee
Protocol: as §1, §2

[16] = target: T14, PHK (Homo sapiens, UniProt Q16816); assay: Mammalian kinase profiling (DSTT panel); assay type: biochemical; conditions: 10 μM; average percentage of remaining activity
T14 construct: purchased Division of Signal Transduction Therapy (DSTT), University of Dundee
Protocol: as §1, §2

[17] = target: T15, IR-HIS (Homo sapiens, UniProt P06213); assay: Mammalian kinase profiling (DSTT panel); assay type: biochemical; conditions: 10 μM; average percentage of remaining activity
T15 construct: purchased Division of Signal Transduction Therapy (DSTT), University of Dundee
Protocol: as §1, §2

[18] = target: T16, PKD1 (Homo sapiens, UniProt Q15139); assay: Mammalian kinase profiling (DSTT panel); assay type: biochemical; conditions: 10 μM; average percentage of remaining activity
T16 construct: purchased Division of Signal Transduction Therapy (DSTT), University of Dundee
Protocol: as §1, §2

T11 sequence (O96017 whole entry): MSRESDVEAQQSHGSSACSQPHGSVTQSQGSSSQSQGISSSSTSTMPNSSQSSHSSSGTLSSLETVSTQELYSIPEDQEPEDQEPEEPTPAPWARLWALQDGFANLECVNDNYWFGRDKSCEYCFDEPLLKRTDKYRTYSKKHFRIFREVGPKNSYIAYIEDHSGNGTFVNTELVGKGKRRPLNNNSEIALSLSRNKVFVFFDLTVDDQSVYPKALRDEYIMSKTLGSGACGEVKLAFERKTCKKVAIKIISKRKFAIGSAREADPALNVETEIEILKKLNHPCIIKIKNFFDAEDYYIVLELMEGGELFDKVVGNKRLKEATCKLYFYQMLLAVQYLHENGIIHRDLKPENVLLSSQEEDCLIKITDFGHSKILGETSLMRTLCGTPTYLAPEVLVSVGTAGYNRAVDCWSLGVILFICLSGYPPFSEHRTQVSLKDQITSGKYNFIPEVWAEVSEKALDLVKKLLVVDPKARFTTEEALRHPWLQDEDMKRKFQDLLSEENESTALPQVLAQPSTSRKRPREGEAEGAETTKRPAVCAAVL
T7 sequence (Q16539 whole entry): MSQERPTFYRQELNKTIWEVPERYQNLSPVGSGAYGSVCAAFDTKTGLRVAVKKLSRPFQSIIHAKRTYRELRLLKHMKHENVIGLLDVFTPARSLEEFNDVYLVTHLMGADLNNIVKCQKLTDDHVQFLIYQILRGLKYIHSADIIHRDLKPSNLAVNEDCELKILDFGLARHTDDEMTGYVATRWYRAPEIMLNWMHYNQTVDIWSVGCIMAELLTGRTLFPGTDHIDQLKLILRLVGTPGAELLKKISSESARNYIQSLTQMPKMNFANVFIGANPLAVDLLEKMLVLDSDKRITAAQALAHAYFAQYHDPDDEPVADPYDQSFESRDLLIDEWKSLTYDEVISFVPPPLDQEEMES
T2 sequence (P27361 whole entry): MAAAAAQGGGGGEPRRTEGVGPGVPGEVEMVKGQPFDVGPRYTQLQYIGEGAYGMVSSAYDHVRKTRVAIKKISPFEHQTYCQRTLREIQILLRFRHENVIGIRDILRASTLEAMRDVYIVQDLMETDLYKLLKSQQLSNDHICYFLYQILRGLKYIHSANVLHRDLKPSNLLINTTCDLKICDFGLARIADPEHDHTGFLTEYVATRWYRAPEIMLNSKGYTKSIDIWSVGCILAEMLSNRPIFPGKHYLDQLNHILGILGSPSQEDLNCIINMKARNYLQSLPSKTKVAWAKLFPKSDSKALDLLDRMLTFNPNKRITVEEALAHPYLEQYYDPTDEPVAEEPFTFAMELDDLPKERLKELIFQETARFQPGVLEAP
T10 sequence (P06239 whole entry): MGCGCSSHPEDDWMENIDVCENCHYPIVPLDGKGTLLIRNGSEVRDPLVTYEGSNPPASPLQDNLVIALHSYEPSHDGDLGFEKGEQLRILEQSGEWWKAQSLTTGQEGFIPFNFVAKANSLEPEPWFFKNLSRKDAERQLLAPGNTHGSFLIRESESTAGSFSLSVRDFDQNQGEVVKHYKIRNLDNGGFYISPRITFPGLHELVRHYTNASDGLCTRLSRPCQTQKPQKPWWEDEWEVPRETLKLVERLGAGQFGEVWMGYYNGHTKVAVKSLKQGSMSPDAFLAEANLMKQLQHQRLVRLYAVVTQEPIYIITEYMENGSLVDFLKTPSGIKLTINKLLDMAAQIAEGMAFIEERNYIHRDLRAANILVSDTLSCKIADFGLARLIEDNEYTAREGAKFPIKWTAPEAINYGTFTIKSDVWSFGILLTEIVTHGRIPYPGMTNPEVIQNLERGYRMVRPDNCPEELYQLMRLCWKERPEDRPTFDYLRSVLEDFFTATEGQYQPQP
T15 sequence (P06213 28-1382): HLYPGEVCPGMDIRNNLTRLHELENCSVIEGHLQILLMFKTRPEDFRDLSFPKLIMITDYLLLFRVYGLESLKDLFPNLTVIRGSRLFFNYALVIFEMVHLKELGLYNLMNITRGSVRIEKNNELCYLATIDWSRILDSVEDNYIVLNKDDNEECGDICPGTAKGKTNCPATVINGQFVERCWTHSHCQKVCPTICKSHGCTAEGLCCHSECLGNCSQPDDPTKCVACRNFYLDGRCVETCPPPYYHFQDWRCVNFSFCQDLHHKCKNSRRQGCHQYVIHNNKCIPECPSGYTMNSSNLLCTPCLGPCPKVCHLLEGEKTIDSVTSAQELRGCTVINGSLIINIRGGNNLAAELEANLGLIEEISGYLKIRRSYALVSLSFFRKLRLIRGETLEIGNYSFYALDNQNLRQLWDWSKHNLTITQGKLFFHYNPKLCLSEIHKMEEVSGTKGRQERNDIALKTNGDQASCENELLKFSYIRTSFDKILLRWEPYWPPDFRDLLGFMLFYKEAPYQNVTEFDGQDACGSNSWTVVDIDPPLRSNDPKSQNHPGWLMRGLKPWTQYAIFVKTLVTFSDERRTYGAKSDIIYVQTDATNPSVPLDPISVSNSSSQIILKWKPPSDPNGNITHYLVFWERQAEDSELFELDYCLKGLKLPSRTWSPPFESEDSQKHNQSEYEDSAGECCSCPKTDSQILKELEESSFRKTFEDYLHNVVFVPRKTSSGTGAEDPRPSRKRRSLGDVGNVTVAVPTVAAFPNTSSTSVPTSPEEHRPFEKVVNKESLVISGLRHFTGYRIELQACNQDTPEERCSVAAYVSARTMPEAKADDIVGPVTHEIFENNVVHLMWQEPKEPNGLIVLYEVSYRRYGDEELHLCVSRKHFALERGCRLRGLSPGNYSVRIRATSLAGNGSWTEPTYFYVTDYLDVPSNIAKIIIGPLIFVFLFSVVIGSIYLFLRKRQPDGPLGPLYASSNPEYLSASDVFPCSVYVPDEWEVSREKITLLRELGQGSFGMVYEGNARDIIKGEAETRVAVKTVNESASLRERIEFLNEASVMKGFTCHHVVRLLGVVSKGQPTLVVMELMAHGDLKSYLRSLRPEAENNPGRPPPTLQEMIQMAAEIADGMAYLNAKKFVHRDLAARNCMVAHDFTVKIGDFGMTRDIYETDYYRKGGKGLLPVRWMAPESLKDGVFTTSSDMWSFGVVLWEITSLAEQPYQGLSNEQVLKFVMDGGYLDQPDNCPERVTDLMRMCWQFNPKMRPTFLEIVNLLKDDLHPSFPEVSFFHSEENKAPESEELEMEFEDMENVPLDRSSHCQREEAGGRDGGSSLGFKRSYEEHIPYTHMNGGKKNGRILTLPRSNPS
T6 sequence (Q06187 whole entry): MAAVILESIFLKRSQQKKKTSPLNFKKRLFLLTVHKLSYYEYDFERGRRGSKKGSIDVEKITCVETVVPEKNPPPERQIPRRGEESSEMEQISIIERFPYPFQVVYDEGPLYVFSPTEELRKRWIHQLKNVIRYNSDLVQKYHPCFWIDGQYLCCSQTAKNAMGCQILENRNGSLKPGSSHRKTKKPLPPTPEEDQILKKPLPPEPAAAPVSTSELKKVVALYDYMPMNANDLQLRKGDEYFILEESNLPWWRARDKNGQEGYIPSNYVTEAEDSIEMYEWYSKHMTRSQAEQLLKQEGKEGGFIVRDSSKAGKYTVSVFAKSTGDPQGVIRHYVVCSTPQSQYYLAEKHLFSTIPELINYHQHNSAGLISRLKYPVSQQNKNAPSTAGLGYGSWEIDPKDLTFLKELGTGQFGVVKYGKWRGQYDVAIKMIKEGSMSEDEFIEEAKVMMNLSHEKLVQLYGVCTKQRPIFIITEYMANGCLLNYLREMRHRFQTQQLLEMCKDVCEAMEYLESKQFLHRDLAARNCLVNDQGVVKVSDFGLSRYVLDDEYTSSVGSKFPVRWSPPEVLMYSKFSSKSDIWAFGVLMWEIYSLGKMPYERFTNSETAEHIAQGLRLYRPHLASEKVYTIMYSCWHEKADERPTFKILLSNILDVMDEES
T8 sequence (Q9P1W9 whole entry): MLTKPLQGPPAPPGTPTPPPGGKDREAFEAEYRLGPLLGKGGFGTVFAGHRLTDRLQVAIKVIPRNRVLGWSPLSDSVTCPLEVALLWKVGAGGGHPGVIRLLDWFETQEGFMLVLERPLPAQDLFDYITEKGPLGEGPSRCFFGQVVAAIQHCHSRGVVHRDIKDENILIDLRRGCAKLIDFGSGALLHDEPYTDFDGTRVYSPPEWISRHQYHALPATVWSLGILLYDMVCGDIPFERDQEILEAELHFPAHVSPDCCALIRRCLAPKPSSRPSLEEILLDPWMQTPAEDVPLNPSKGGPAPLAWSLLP

CO[C@H]1CC[C@H](NC(=O)c2n[nH]cc2NC(=O)c2ccccc2)CC1 [Compound 4f, 4-Benzamido-N-(4-methoxycyclohexyl)-1H-pyrazole-3-carboxamide]
improvement of TbGSK3 inhibition potency ([1]; relative to saturated six-membered rings (4a, 4b) and benzyl groups (4c, 4d, 4e), on average): ~20 fold
IKK activity compared to the control [2]: 68%
number of PKs inhibited by more than 80% [3]: seven
ERK1 activity compared to the control [4]: 75%
BRSK2 activity compared to the control [5]: 55%
PKCa activity compared to the control [6]: 49%
EPH A2 activity compared to the control [7]: 100%
BTK activity compared to the control [8]: 100%
P38a MAPK activity compared to the control [9]: 81%
PIM2 activity compared to the control [10]: 90%
PLK1 activity compared to the control [11]: 100%
Lck activity compared to the control [12]: 76%
CHK2 activity compared to the control [13]: 100%
PRAK activity compared to the control [14]: 52%
IKKe activity compared to the control [15]: 62%
PHK activity compared to the control [16]: 89%
IR-HIS activity compared to the control [17]: 84%

COc1cccc(OC)c1C(=O)Nc1c[nH]nc1C(=O)NC1CCC(OC)CC1 (centres unmarked) [Compound 4m, 4-(2,6-Dimethoxybenzamido)-N-(4-methoxycyclohexyl)-1H-pyrazole-3-carboxamide]
TbGSK3 potency relative to 4f ([1]; more potent than the unsubstituted phenyl compound 4f): approximately 10 fold
IKK activity compared to the control [2]: 90%
number of PKs inhibited by more than 80% [3]: two
ERK1 activity compared to the control [4]: 100%
PKCa activity compared to the control [6]: 90%
EPH A2 activity compared to the control [7]: 100%
BTK activity compared to the control [8]: 100%
P38a MAPK activity compared to the control [9]: 80%
PIM2 activity compared to the control [10]: 97%
Lck activity compared to the control [12]: 90%
CHK2 activity compared to the control [13]: 75%
PRAK activity compared to the control [14]: 92%
PKD1 activity compared to the control [18]: 59%
IR-HIS activity compared to the control [17]: 99%

CO[C@H]1CC[C@H](NC(=O)c2n[nH]cc2NC(=O)c2ccc(-c3ccccc3)o2)CC1 [Compound 4y, N-(4-Methoxycyclohexyl)-4-(5-phenylfuran-2-carboxamido)-1H-pyrazole-3-carboxamide]
IKK activity compared to the control [2]: 71%
ERK1 activity compared to the control [4]: 33%
BRSK2 activity compared to the control [5]: 60%
PKCa activity compared to the control [6]: 48%
EPH A2 activity compared to the control [7]: 100%
BTK activity compared to the control [8]: 100%
P38a MAPK activity compared to the control [9]: 71%
PIM2 activity compared to the control [10]: 82%
PLK1 activity compared to the control [11]: 99%
Lck activity compared to the control [12]: 67%
CHK2 activity compared to the control [13]: 51%
PRAK activity compared to the control [14]: 65%
PKD1 activity compared to the control [18]: 59%
IKKe activity compared to the control [15]: 46%
PHK activity compared to the control [16]: 45%
IR-HIS activity compared to the control [17]: 50%

Reference: PMC4175002, “The Design and Synthesis of Potent and Selective Inhibitors of Trypanosoma brucei Glycogen Synthase Kinase 3 for the Treatment of Human African Trypanosomiasis” (Journal of Medicinal Chemistry, 2014)
